This is an account of results in ChEMBL document CHEMBL1156829 (Proc Natl Acad Sci U S A, 2008).

By CC50 is commonly meant the concentration that lowers cell viability or growth by half. A word on the EC50: it is the concentration giving half of the maximal effect.

Structures are written as SMILES. Bounds are passed on as bounds.

Series [1] is described as follows: NOVARTIS: Cytotoxicity against human hepatocellular carcinoma cell line (Huh7). The class given is toxicity, cell-based, Huh-7. The following applies: Huh7 cells (hepatocellular carcinoma cell line).
Series [2] deals with Plasmodium falciparum. The series is described as follows: NOVARTIS: Inhibition of Plasmodium falciparum W2 (drug-resistant) proliferation in erythrocyte-based infection assay. The class given is functional, organism-based. Conditions: Plasmodium falciparum, W2; read-out: EC50.
Series [3] concerns Plasmodium falciparum. In words: NOVARTIS: Inhibition of Plasmodium falciparum 3D7 (drug-susceptible) proliferation in erythrocyte-based infection assay. The class given is functional, organism-based. The following applies: Plasmodium falciparum, 3D7.

Turning to `COc1cc(C=C(C#N)c2nc3ccccc3[nH]2)ccc1OCc1ccccc1`, the CC50 in series [1] was more than 100 µM. For the same molecule, the EC50 with Plasmodium falciparum [2] is 1590 nM; with Plasmodium falciparum [3], 766 nM.
On the same counts, the results for `O=[N+]([O-])c1ccc(C=NN2CCN(Cc3ccccc3Cl)CC2)cc1` are more than 100 µM, more than 1590 nM and more than 7220 nM.
Molecule `c1ccc(OCCOc2ccc(Nc3ccnc4cc5ccccc5cc34)cc2)cc1` had a CC50 in series [1] of 6.11 µM. The concentration for a half-maximal effect (EC50) in the series with Plasmodium falciparum [2] is 97.5 nM; in the series on Plasmodium falciparum [3] it was 124 nM.
In the same order, the values of `O=C(c1cc2n(n1)C(C(F)(F)F)CC(c1ccc3c(c1)OCO3)N2)N1CCN(C(c2ccccc2)c2ccccc2)CC1` (stereo not given) are more than 100 µM, 1600 nM and 5260 nM.
In turn, `COc1cccc(CCOc2ccc3c(c2)C(=O)N(C(CC(C)C)C(=O)NC2CCN(Cc4ccccc4)CC2)[C@@H](Cc2ccc(O)cc2)C(=O)N3)c1` (stereo not given in full) came in with a CC50 in series [1] of more than 10 µM. Moreover, the EC50 in the series on Plasmodium falciparum [2] came out at 158 nM; in the series with Plasmodium falciparum [3], 502 nM.
In the same order, the values of `CCN(CC)c1nc(Nc2cc(C)ccc2C)nc(Nc2ccccc2O)n1` are more than 10 µM, 159 nM and 439 nM.
In the same order, the values of `CC(C)NCC(O)Cn1c2ccc(Br)cc2c2cc(Br)ccc21` (stereo not given) are 3.36 µM, 54.4 nM and 216 nM.
On the same counts, the results for `Oc1c(C(Nc2ccccn2)c2ccc(Cl)cc2Cl)ccc2cccnc12` (stereo not given) are more than 10 µM, 160 nM and more than 1300 nM.
On to `CC(c1nc2ccccc2c(=O)n1-c1ccccc1Cl)N(Cc1ccccc1)C(=O)Nc1cccc(Br)c1` (stereo not given), for which, in series [1], the CC50 is more than 10 µM. For the same molecule, the concentration for a half-maximal effect (EC50) in the series with Plasmodium falciparum [2] was more than 159 nM; in the series on Plasmodium falciparum [3], more than 1250 nM.
In the same order, the values of `Cc1ccc2nc(C(C#N)=Cc3cn(Cc4ccc(Cl)cc4Cl)nc3-c3ccccc3)[nH]c2c1` are more than 100 µM, 1590 nM and 1820 nM.
In the same order, the values of `CCCCCC(=O)NCCCCCCNc1ccnc2cc(Cl)ccc12` are more than 13.9 µM, 222 nM and 254 nM.
In the same order, the values of `O=C1CN(C(=O)COC(=O)c2ccccc2NCCc2ccc(F)cc2)c2ccccc2N1` are more than 10 µM, 165 nM and 219 nM.
In turn, `OCCNc1nc(Nc2ccc(Cl)c(Cl)c2)nc2ccccc12` displayed a CC50 in series [1] of 9.4 µM. Further, the EC50 with Plasmodium falciparum [2] was 154 nM; in the series with Plasmodium falciparum [3], 140 nM.
On the same counts, the results for `CCCCCc1ccc(OCCCC[n+]2cccc(C)c2)c(CCCCC)c1` are 20.5 µM, 336 nM and 713 nM.
In series [1], `O=[N+]([O-])c1ccc(N2CCN(C(=S)Nc3ccccc3)CC2)cc1` came in with a CC50 of more than 100 µM. Besides, the EC50 was determined as 1640 nM in the series with Plasmodium falciparum [2] and 6010 nM with Plasmodium falciparum [3].
The molecule `COc1ccc(CCNc2ncnc3c2[nH]c2ccccc23)cc1` gave a CC50 in series [1] of 24.9 µM. The half-maximal effective concentration (EC50) with Plasmodium falciparum [2] worked out at 401 nM; with Plasmodium falciparum [3], 299 nM.
In the same order, the values of `CCC(C)(C)c1ccc(OCCCC[n+]2ccc(C)cc2)c(C(C)(C)CC)c1` are 12 µM, 193 nM and 532 nM.
In the same order, the values of `CCOC(=O)c1cnc2c(ccc3ccccc32)c1Nc1ccc(NC(C)=O)cc1` are more than 100 µM, 1610 nM and 6900 nM.
In the same order, the values of `COc1ccc(-n2cnc3cc(NCc4nc5ccccc5n4C)ccc32)cc1` are 56.8 µM, 906 nM and 912 nM.
In the case of `CCc1ccc2ncc(C(=O)OCCOC)c(O)c2c1`, the CC50 in series [1] was more than 100 µM. Also, the EC50 in the series with Plasmodium falciparum [2] is 1620 nM; in the series on Plasmodium falciparum [3] it was 777 nM.
In turn, `COc1nc(Nc2ccc(C(C)C)cc2)nc(OC)n1` registered a CC50 in series [1] of 56.9 µM. Moreover, the EC50 with Plasmodium falciparum [2] stood at 935 nM; in the series on Plasmodium falciparum [3], 677 nM.
In the same order, the values of `COc1nc(C)nc(NC(=O)NC(=O)c2c(OC)ccc([N+](=O)[O-])c2OC)n1` are more than 10 µM, more than 164 nM and more than 266 nM.
In turn, `Nc1ccc(-c2nc3cc(Oc4ccc(Oc5ccc6[nH]c(-c7ccc(N)cc7)nc6c5)cc4)ccc3[nH]2)cc1` displayed a CC50 in series [1] of 15 µM. In addition, the EC50 worked out at 246 nM in the series on Plasmodium falciparum [2] and 288 nM in the series on Plasmodium falciparum [3].
In the same order, the values of `Cc1ccc(-c2c[n+](-c3ccccc3)c3n2CCCS3)cc1` are more than 100 µM, 1640 nM and 735 nM.
In the case of `CCC(C)C(=O)N1CCC(C(=O)Nc2ccc(-c3nc4ccccc4o3)cc2)CC1` (stereo not given), the CC50 in series [1] was more than 100 µM. Also, the EC50 in the series with Plasmodium falciparum [2] was determined as 1580 nM; in the series with Plasmodium falciparum [3] it was 1860 nM.
In the same order, the values of `COc1ccc(-c2noc(CNC(=O)c3cccc(I)c3)n2)cc1` are more than 100 µM, 1580 nM and more than 12500 nM.
In series [1], `COC(=O)c1ccc(S(=O)(=O)N2CCC3(CC2)Nc2ccccc2-n2cccc23)cc1` registered a 50% cytotoxic concentration (CC50) of more than 10 µM. Also, the EC50 in the series on Plasmodium falciparum [2] was more than 163 nM; with Plasmodium falciparum [3], more than 1250 nM.
In the same order, the values of `Cc1nc(NCCCN(C)C)c2sc3nc4c(cc3c2n1)COC(C)(C)C4` are more than 100 µM, 1630 nM and more than 12500 nM.
Take `Cc1sc2sc(-c3ccccc3)c(N)[n+]2c1C`: in series [1], the CC50 is more than 100 µM. Further, the results for the EC50 in the series with Plasmodium falciparum [2] and in the series on Plasmodium falciparum [3] were 1630 nM and 1050 nM, respectively.
On the same counts, the results for `CCN(CC)CCNc1ncnc2c1[nH]c1ccc(Br)cc12` are 19.5 µM, 318 nM and 288 nM.
In the same order, the values of `NCCNc1cc(-c2ccccc2)nc2ccccc12` are 23 µM, 375 nM and 318 nM.
On the same counts, the results for `O=c1c2ccccc2nc2n1CCN2Cc1ccc(Cl)cc1` are more than 100 µM, 1630 nM and 1610 nM.
As for `COc1cccc(OC)c1C(=O)NCCCCNc1ccnc2cc(Cl)ccc12`, in series [1], the 50% cytotoxic concentration (CC50) is more than 12.2 µM. Also, the EC50 in the series on Plasmodium falciparum [2] stood at 198 nM; in the series on Plasmodium falciparum [3], 449 nM.
As to `Cc1cc2c(cc1C)-c1c(ssc1=Nc1cccc(C)c1C)C(C)(C)N2`, in series [1], the CC50 is more than 100 µM. Also, the EC50 was 1620 nM in the series with Plasmodium falciparum [2] and 8590 nM in the series on Plasmodium falciparum [3].
Regarding `c1ccc2c(c1)[nH]c1c(NCCN3CCCCC3)ncnc12`, in series [1], the CC50 came to 49.9 µM. For the same molecule, the EC50 worked out at 788 nM with Plasmodium falciparum [2] and 704 nM with Plasmodium falciparum [3].
In series [1], `O=S(=O)(Nc1cc(Sc2nc[nH]n2)c(O)c2ccccc12)c1ccc(F)cc1` had a CC50 of 20.5 µM. Moreover, the figures for the EC50 in the series on Plasmodium falciparum [2] and in the series with Plasmodium falciparum [3] were 323 nM and 1600 nM, respectively.
In turn, `CN1CCC(CCNCc2ccc(OCC(O)CN(C)Cc3ccccc3)cc2)CC1` (stereo not given) showed a CC50 in series [1] of 68.6 µM. For the same molecule, the concentration giving a half-maximal response (EC50) came out at 1080 nM with Plasmodium falciparum [2] and 1110 nM in the series on Plasmodium falciparum [3].
In the same order, the values of `Cc1ccccc1OCCSc1nc2ccc(NC(=O)c3cccs3)cc2s1` are more than 100 µM, 1580 nM and 497 nM.
In the same order, the values of `Cc1nc2ccccc2c(=O)n1NC(=O)c1cccc([N+](=O)[O-])c1` are more than 100 µM, 1610 nM and 141 nM.
For `CC(C)Cc1nc(N2CCOCC2)c2nnn(Cc3ccccc3)c2n1`, the CC50 in series [1] is more than 100 µM. The EC50 in the series with Plasmodium falciparum [2] amounted to 1650 nM; in the series with Plasmodium falciparum [3], 3030 nM.
On the same counts, the results for `COc1ccc(C2CC(c3cccs3)=NN2C(=O)CSc2nnc(CNC(=O)c3cccs3)n2-c2cccc(C)c2)cc1` (stereo not given) are more than 100 µM, 1610 nM and 10400 nM.
In the same order, the values of `Cc1cc(C)c(C(Nc2ccccn2)c2ccc3cccnc3c2O)c(C)c1` (stereo not given) are more than 67.9 µM, 1070 nM and 3180 nM.
On the same counts, the results for `CCn1ccccc1=Nc1cccc[n+]1CC` are more than 73.2 µM, 1170 nM and 1500 nM.
In series [1], `CC(C)(C)c1ccc(-c2nc(C34CC5CC(CC(C5)C3)C4)cs2)cc1` came in with a CC50 of more than 100 µM. Besides, the EC50 in the series with Plasmodium falciparum [2] was 1650 nM; with Plasmodium falciparum [3], more than 12500 nM.
In series [1], `COc1ccc(-c2cnc3ccc(NCc4cccc(Cl)c4)nn23)cn1` came in with a CC50 of 68.9 µM. Besides, the figures for the EC50 in the series with Plasmodium falciparum [2] and in the series with Plasmodium falciparum [3] were 1130 nM and 805 nM, respectively.
On the same counts, the results for `CCCC(=O)NC(c1ccc(Cl)cc1)c1ccc2cccnc2c1O` (stereo not given) are 10.3 µM, 170 nM and 288 nM.
On the same counts, the results for `COc1ccc(S(=O)(=O)ON=C2C=C(C(C)C)C(=O)C=C2C)cc1` are 18.3 µM, 296 nM and 834 nM.
In the same order, the values of `Cc1ccc(CNC(=O)c2cc3sc(Cl)cc3n2C)cc1` are more than 100 µM, 1590 nM and 3130 nM.
Turning to `Cc1ccc(CNC(=O)CCCCCn2c(SCc3cccc([N+](=O)[O-])c3)nc3ccsc3c2=O)cc1`, the CC50 in series [1] is more than 100 µM. Further, the EC50 in the series on Plasmodium falciparum [2] was found to be 1600 nM; in the series on Plasmodium falciparum [3] it was 6280 nM.
Turning to `Cc1ccc2[nH]c3c(NCCN4CCCC4)ncnc3c2c1`, the CC50 in series [1] was found to be 46.5 µM. Besides, the EC50 came out at 737 nM in the series with Plasmodium falciparum [2] and 514 nM in the series on Plasmodium falciparum [3].
In series [1], `Cc1ccc(-c2cn3ccccc3[n+]2-c2ccccc2)cc1` showed a CC50 of 51.7 µM. In addition, the EC50 in the series with Plasmodium falciparum [2] was found to be 817 nM; in the series on Plasmodium falciparum [3], 214 nM.
In the same order, the values of `COc1cc(C2C(C(=O)OCCc3ccccc3)=C(C)NC3=C2C(=O)CC(c2ccc(Cl)cc2)C3)ccc1OCc1ccccc1` (stereo not given) are more than 100 µM, 1580 nM and 6940 nM.
On the same counts, the results for `CC(C)CC(=O)N(C)CCCNc1ccnc2cc(Cl)ccc12` are 7.44 µM, 121 nM and 740 nM.
In the same order, the values of `Cn1c(=O)c2c(nc3n2CC(O)CN3c2ccccc2)n(C)c1=O` (stereo not given) are more than 10 µM, 162 nM and 72.6 nM.
With `CSc1nc2sc3c(c2c(=O)n1-c1ccccc1)CCN(CCc1ccccc1)C3`, the CC50 in series [1] is more than 69.3 µM. Moreover, the EC50 with Plasmodium falciparum [2] was determined as 1140 nM; in the series on Plasmodium falciparum [3], 859 nM.
